Experiments:
[1] = Selectivity index, ratio of CC50 for cytotoxicity against dog MDCK cells to IC50 for antiviral activity against Influenza A virus A/WSN/33(H1N1) infected in HEK293T cells; assay type: toxicity, cell-based; conditions: read-out: Selectivity Index
Influenza A virus [2] = experiment: Antiviral activity against Influenza A virus A/WSN/33(H1N1) infected in HEK293T cells by Gaussia luciferase assay; assay type: functional, organism-based; conditions: HEK-293T
Influenza A virus [3] = experiment: Antiviral activity against Influenza A virus A/WSN/33(H1N1) infected in HEK293T cells assessed as inhibition of viral replication at 50 uM by Gaussia luciferase assay; assay type: functional; conditions: HEK-293T
[4] = Cytotoxicity against dog MDCK cells by MTT assay; assay type: toxicity, cell-based, Canis lupus familiaris

## O=C1/C=C/CCc2ccc(O)c(c2)-c2cc(ccc2O)C[C@H]1O
[1]
  selectivity ratio: > 12
Influenza A virus [2]
  IC50: 8.64 µM
Influenza A virus [3]
  inhibition at 50 µM: 60%
[4]
  CC50 at 48 h: > 100 µM
